From patent US10336792B2, “Antimicrobial peptide dendrimers” (priority 2014, dated 2019)
Values after ≈ are worked out from the molar mass of the structure shown. Positions of bridges follow the written chain, without caps; N, C: chain ends. Residues, ends and D or L forms follow the SMILES beside them. Groups on a side chain read outwards from the residue. Chains are numbered I, II in the order given. *: point of attachment. LeuLys(Leu) = CC(C)C[C@H](N)C(=O)NCCCC[C@H](NC(=O)[C@@H](N)CC(C)C)C(=O)*

Test system: Pseudomonas aeruginosa (strain PA01)
Experiment: microbe, parasite or virus in culture
Assay type: cell-based
Details: strain
Protocol: Antimicrobial activity was assayed against Bacillus subtilis (strain BR151), Escherichia coli (strain DH5α) and Pseudomonas aeruginosa (strain PA01). Microdilution broth method was used to determine the minimal inhibitory concentration (MIC). A colony of bacteria was grown in LB-medium overnight at 37° C. The concentration was quantified by measuring absorbance at 600 nm and diluted to OD600=0.1 (1×10^8 CFU/mL). The samples were prepared as stock solutions of 1 mg mL^−1 in H2O and diluted serially by ⅔ in nutrient LB in a 96-well microtiterplate (Cornstar, polypropylene, untreated). The sample solutions (50 μL) were mixed with the diluted bacterial suspension with an OD600 nm of 0.001 (50 μL). […] The plates were incubated at 37° C. until satisfactory growth (18-24 h). For each test, two columns of the plate were kept for sterility control (SC, broth only) and growth control (GC, broth with bacterial inoculums, no antibiotics). 10 μL of a solution of MTT (0.1% in H2O) was added to each well. The minimal inhibitory concentration (MIC) was defined as the lowest concentration of the antimicrobial substance (peptide dendrimer) that inhibited visible growth of the tested bacteria (yellow) with the unaided eye. For microbiological study the linear peptide LysTyrLysLysAlaLeuLysLysLeuAlaLysLeuLeu (SEQ ID No. 1) was used as reference.
All peptides were tested for their activity against P. aeruginosa PAO1 in a broth dilution assay (Wiegand, I. et al., 2008, Nat. Protoc., 3, 163-75; Clinical and Laboratory Standards Institute document M7-A7 7th Edition) to determine the MIC (minimal inhibitory concentration) values. The stock solutions of the peptide dendrimers were diluted serially by ⅔ in nutrient LB in 96-well microtiter plates. Bacteria were grown in nutrient LB overnight at 37° C. After dilution the bacteria were added to the peptides and incubated overnight (18-24 h) at 37° C. […] The position of the amino acids between the branching units seems to be optimal if the hydrophobic amino acid is the first counting from C-terminus and the charged one is on the second position. Introducing Ala as additional hydrophobic amino acid reduces activity (MSt-120). […] Also assembling charged or hydrophobic sections between the branching units leads to loss of activity whereas altering L-amino acids to D-amino acids maintains activity leading to the hypothesis that the mechanism of action should not be receptor mediated.

SMILES | MIC P. aeruginosa PAO1
CC(C)C[C@H](NC(=O)[C@H](CCCCN)NC(=O)[C@H](CC(C)C)NC(=O)[C@H](CCCCNC(=O)[C@H](CC(C)C)NC(=O)[C@H](CCCCN)NC(=O)[C@H](CCCCNC(=O)[C@H](CC(C)C)NC(=O)[C@@H](N)CCCCN)NC(=O)[C@H](CC(C)C)NC(=O)[C@@H](N)CCCCN)NC(=O)[C@H](CC(C)C)NC(=O)[C@H](CCCCN)NC(=O)[C@H](CCCCNC(=O)[C@H](CC(C)C)NC(=O)[C@@H](N)CCCCN)NC(=O)[C@H](CC(C)C)NC(=O)[C@@H](N)CCCCN)C(=O)NCCCC[C@H](NC(=O)[C@H](CC(C)C)NC(=O)[C@H](CCCCN)NC(=O)[C@H](CC(C)C)NC(=O)[C@H](CCCCNC(=O)[C@H](CC(C)C)NC(=O)[C@H](CCCCN)NC(=O)[C@H](CCCCNC(=O)[C@H](CC(C)C)NC(=O)[C@@H](N)CCCCN)NC(=O)[C@H](CC(C)C)NC(=O)[C@@H](N)CCCCN)NC(=O)[C@H](CC(C)C)NC(=O)[C@H](CCCCN)NC(=O)[C@H](CCCCNC(=O)[C@H](CC(C)C)NC(=O)[C@@H](N)CCCCN)NC(=O)[C@H](CC(C)C)NC(=O)[C@@H](N)CCCCN)C(=O)N[C@@H](CCCCN)C(=O)N[C@@H](CC(C)C)C(=O)N[C@@H](CCCCN)C(N)=O [YGO-010, (KL)8(KKL)4(KLKL)2(KKLK)] (I: H-KLK([Leu-Lys])KLKLKLKKLK-NH2 / II: H-KLK([Leu-Lys])KLKLKL / III: H-KLK([Leu-Lys])KL / IV: H-KLK([Leu-Lys])KL; amide I:6-IV:C, I:10-II:C, II:6-III:C) | 3 µg/mL (≈ 0.614 µM)
CC(C)C[C@H](NC(=O)[C@H](CCCNC(=N)N)NC(=O)[C@H](CCCCNC(=O)[C@H](CC(C)C)NC(=O)[C@@H](N)CCCNC(=N)N)NC(=O)[C@H](CC(C)C)NC(=O)[C@@H](N)CCCNC(=N)N)C(=O)N[C@@H](CSSC[C@H](NC(=O)[C@H](CC(C)C)NC(=O)[C@H](CCCNC(=N)N)NC(=O)[C@H](CCCCNC(=O)[C@H](CC(C)C)NC(=O)[C@@H](N)CCCNC(=N)N)NC(=O)[C@H](CC(C)C)NC(=O)[C@@H](N)CCCNC(=N)N)C(N)=O)C(N)=O [CCS-19 dimer, ((RL)2KRLC)2] (I: H-RLK([Leu-Arg])RLC-NH2 / II: H-RLK([Leu-Arg])RLC-NH2; disulfide I:6-II:6; N-terminus assumed) | 5 µg/mL (≈ 2.37 µM)
CC(C)C[C@H](NC(=O)[C@H](CCCCN)NC(=O)[C@H](CC(C)C)NC(=O)[C@H](CCCCNC(=O)[C@H](CC(C)C)NC(=O)[C@H](CCCCN)NC(=O)[C@H](CC(C)C)NC(=O)[C@H](CCCCNC(=O)[C@H](CC(C)C)NC(=O)[C@H](CCCCN)NC(=O)[C@@H](N)CC(C)C)NC(=O)[C@H](CC(C)C)NC(=O)[C@H](CCCCN)NC(=O)[C@@H](N)CC(C)C)NC(=O)[C@H](CC(C)C)NC(=O)[C@H](CCCCN)NC(=O)[C@H](CC(C)C)NC(=O)[C@H](CCCCNC(=O)[C@H](CC(C)C)NC(=O)[C@H](CCCCN)NC(=O)[C@@H](N)CC(C)C)NC(=O)[C@H](CC(C)C)NC(=O)[C@H](CCCCN)NC(=O)[C@@H](N)CC(C)C)C(N)=O [MIS-04, (LKL)4(KLKL)2(KLKL)] (I: H-LKLK([Leu-Lys-Leu])LKLKLKL-NH2 / II: H-LKLK([Leu-Lys-Leu])LKL; amide I:8-II:C) | 2 µg/mL (≈ 0.694 µM)
CC(C)C[C@H](NC(=O)[C@H](CCCCNC(=O)[C@H](CCCCN)NC(=O)[C@H](CCCCNC(=O)[C@@H](N)CC(C)C)NC(=O)[C@@H](N)CC(C)C)NC(=O)[C@H](CCCCN)NC(=O)[C@H](CCCCNC(=O)[C@@H](N)CC(C)C)NC(=O)[C@@H](N)CC(C)C)C(=O)NCCCC[C@H](NC(=O)[C@H](CC(C)C)NC(=O)[C@H](CCCCNC(=O)[C@H](CCCCN)NC(=O)[C@H](CCCCNC(=O)[C@@H](N)CC(C)C)NC(=O)[C@@H](N)CC(C)C)NC(=O)[C@H](CCCCN)NC(=O)[C@H](CCCCNC(=O)[C@@H](N)CC(C)C)NC(=O)[C@@H](N)CC(C)C)C(=O)N[C@@H](CCCCN)C(N)=O [MSt-147, (L)8(KK)4(KL)2(KK)] (I: H-LK(Leu)KK([Lys-LeuLys(Leu)])LKK-NH2 / II: H-LK(Leu)KK([Lys-LeuLys(Leu)])L; amide I:6-II:C) | 12 µg/mL (≈ 4.47 µM)
CC(C)C[C@H](NC(=O)[C@H](CC(C)C)NC(=O)[C@H](CCCCN)NC(=O)[C@H](CCCCNC(=O)[C@H](CC(C)C)NC(=O)[C@H](CC(C)C)NC(=O)[C@H](CCCCN)NC(=O)[C@H](CCCCNC(=O)[C@H](CC(C)C)NC(=O)[C@H](CC(C)C)NC(=O)[C@H](CCCCN)NC(=O)[C@H](CCCCNC(=O)[C@H](CC(C)C)NC(=O)[C@H](CC(C)C)NC(=O)[C@@H](N)CCCCN)NC(=O)[C@H](CC(C)C)NC(=O)[C@H](CC(C)C)NC(=O)[C@@H](N)CCCCN)NC(=O)[C@H](CC(C)C)NC(=O)[C@H](CC(C)C)NC(=O)[C@H](CCCCN)NC(=O)[C@H](CCCCNC(=O)[C@H](CC(C)C)NC(=O)[C@H](CC(C)C)NC(=O)[C@@H](N)CCCCN)NC(=O)[C@H](CC(C)C)NC(=O)[C@H](CC(C)C)NC(=O)[C@@H](N)CCCCN)NC(=O)[C@H](CC(C)C)NC(=O)[C@H](CC(C)C)NC(=O)[C@H](CCCCN)NC(=O)[C@H](CCCCNC(=O)[C@H](CC(C)C)NC(=O)[C@H](CC(C)C)NC(=O)[C@H](CCCCN)NC(=O)[C@H](CCCCNC(=O)[C@H](CC(C)C)NC(=O)[C@H](CC(C)C)NC(=O)[C@@H](N)CCCCN)NC(=O)[C@H](CC(C)C)NC(=O)[C@H](CC(C)C)NC(=O)[C@@H](N)CCCCN)NC(=O)[C@H](CC(C)C)NC(=O)[C@H](CC(C)C)NC(=O)[C@H](CCCCN)NC(=O)[C@H](CCCCNC(=O)[C@H](CC(C)C)NC(=O)[C@H](CC(C)C)NC(=O)[C@@H](N)CCCCN)NC(=O)[C@H](CC(C)C)NC(=O)[C@H](CC(C)C)NC(=O)[C@@H](N)CCCCN)C(N)=O [MIS-06, (KLL)8(KKLL)4(KKLL)2(KKLL)] (I: H-KLLK([Leu-Leu-Lys])KLLKKLLKKLL-NH2 / II: H-KLLK([Leu-Leu-Lys])KLLKKLL / III: H-KLLK([Leu-Leu-Lys])KLL / IV: H-KLLK([Leu-Leu-Lys])KLL; amide I:8-IV:C, I:12-II:C, II:8-III:C) | 11 µg/mL (≈ 1.77 µM)
CC(C)C[C@H](NC(=O)[C@H](CCCCN)NC(=O)[C@H](CCCCNC(=O)[C@H](CC(C)C)NC(=O)[C@H](CCCCN)NC(=O)[C@H](CCCCNC(=O)[C@H](CC(C)C)NC(=O)[C@@H](N)CCCCN)NC(=O)[C@H](CC(C)C)NC(=O)[C@@H](N)CCCCN)NC(=O)[C@H](CC(C)C)NC(=O)[C@H](CCCCN)NC(=O)[C@H](CCCCNC(=O)[C@H](CC(C)C)NC(=O)[C@@H](N)CCCCN)NC(=O)[C@H](CC(C)C)NC(=O)[C@@H](N)CCCCN)C(N)=O [MSt-146, (KL)4(KKL)2(KKL)] (I: H-KLK([Leu-Lys])KLKKL-NH2 / II: H-KLK([Leu-Lys])KL; amide I:6-II:C) | 7 µg/mL (≈ 3.35 µM)
